Data as given in patent US6005007A, “Retinoids, methods for their production and use” (priority 1997, dated 1999).

Assays:
[1] = biological target: T1, RARγ (Homo sapiens, UniProt P13631); test: Receptor binding, RARγ; conditions: tritiated retinoid competition
T1 sequence (P13631 1-454): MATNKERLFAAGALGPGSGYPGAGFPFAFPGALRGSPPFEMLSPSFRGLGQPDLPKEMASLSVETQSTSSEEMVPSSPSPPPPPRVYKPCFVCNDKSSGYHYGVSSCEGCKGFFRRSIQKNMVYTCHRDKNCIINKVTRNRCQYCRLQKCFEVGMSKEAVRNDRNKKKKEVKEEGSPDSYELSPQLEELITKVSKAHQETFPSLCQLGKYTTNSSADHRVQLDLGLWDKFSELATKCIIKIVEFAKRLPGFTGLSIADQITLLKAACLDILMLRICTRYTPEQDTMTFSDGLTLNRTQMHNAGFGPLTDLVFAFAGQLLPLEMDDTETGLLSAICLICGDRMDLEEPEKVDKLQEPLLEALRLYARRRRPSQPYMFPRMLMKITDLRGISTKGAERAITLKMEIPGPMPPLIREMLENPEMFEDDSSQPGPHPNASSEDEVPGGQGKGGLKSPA

[2] = biological target: T2, RARα (Homo sapiens, UniProt P10276); test: Co-transfection assay, RARα agonist activity; format: cell-based; parameters: expressed in transfected cells; host or cells: CV-1 (African green monkey kidney fibroblasts); conditions: CV-1 cells, luciferase reporter, read-out: RARα Pot
T2 sequence (P10276 1-462): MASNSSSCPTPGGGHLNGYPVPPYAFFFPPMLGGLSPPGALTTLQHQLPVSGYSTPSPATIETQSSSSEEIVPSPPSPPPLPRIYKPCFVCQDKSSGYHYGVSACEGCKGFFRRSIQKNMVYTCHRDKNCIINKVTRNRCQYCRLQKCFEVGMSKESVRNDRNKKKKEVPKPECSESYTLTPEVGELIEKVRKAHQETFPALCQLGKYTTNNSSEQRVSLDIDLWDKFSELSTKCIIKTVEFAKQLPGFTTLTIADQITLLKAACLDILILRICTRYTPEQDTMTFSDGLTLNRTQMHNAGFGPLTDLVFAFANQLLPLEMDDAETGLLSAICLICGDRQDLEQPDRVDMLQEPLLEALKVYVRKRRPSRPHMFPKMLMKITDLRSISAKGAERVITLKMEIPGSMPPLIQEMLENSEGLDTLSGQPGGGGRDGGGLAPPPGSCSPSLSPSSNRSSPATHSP

[3] = biological target: T3, RXRγ (Mus musculus, UniProt P28705); test: Receptor binding, RXRγ; conditions: tritiated retinoid competition
T3 construct: expressed in transfected cells; host or cells: CV-1 (African green monkey kidney fibroblasts)
T3 sequence (P28705 1-463): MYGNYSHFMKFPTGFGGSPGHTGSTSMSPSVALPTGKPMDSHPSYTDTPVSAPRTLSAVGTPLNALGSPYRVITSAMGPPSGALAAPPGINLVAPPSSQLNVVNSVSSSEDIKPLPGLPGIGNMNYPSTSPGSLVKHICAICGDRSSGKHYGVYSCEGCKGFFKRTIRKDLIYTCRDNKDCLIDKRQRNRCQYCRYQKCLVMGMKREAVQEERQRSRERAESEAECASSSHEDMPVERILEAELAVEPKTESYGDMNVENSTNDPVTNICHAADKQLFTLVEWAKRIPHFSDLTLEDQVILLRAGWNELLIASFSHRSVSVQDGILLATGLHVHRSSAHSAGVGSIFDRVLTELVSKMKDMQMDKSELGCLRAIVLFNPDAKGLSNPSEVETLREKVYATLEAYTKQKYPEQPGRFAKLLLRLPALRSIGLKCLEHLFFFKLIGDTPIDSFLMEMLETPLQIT

[4] = biological target: T4, RARβ (Homo sapiens, UniProt P10826); test: Co-transfection assay, RARβ agonist activity; format: cell-based; parameters: expressed in transfected cells; host or cells: CV-1 (African green monkey kidney fibroblasts); conditions: CV-1 cells, luciferase reporter, read-out: RARβ Pot
T4 sequence (P10826 1-448 isoform P10826-2): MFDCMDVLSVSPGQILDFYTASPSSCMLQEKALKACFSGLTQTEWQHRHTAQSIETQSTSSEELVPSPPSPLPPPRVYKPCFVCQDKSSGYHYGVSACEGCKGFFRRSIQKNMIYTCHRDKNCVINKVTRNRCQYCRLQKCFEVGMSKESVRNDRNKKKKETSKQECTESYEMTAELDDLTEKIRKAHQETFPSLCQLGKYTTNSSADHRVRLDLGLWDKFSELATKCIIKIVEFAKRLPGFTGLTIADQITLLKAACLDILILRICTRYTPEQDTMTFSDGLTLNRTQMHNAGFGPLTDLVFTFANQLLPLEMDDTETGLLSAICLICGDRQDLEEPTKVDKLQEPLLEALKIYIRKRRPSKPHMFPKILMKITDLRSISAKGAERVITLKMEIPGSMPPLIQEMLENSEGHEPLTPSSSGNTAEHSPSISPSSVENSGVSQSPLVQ

| Kd [1] [nM] | EC50 [2] [nM] | Kd [3] [nM] | EC50 [4] [nM] | Structure (SMILES) |
| --- | --- | --- | --- | --- |
| 552 | 59 | 8 | 17 | CC(/C=C/CC1(c2ccc3c(c2)C(C)(C)CCC3(C)C)CC1)=C\C(=O)O [Compound 101, (2E, 4E)-6-[1-(5,5,8,8-Tetramethyl-5,6,7,8-tetrahydronaphtha-len-2-yl)cyclopropanyl]-3-methyl hexadienoic acid] |
| > 5000 | > 10000 | 22 | > 10000 | CC(/C=C/CC1(c2cc(C(C)(C)C)cc3c2CCC3(C)C)CC1)=C\C(=O)O [Compound 107, (2E, 4E)-6-[1-(6-t-butyl-1,1-dimethyl-indan-4-yl)-cyclopropyl]-3-methyl hexadienoic acid] |
| > 5000 | > 10000 | 128 | > 10000 | CC(/C=C/CC1(c2ccc3c(c2)C(C)(C)CCC3(C)C)CCCC1)=C\C(=O)O [Compound 108, (2E, 4E)-6-[(5,5,8,8-Tetramethyl-5,6,7,8-tetrahydronaphtha-len-2-yl)cyclopentane-1-yl]-3-methyl hexadienoic acid] |
